Source: paper PMC5114558, “Reader domain specificity and lysine demethylase-4 family function” (Nature Communications, 2016)
Numbering of substitutions follows the chain as printed. Like-named read-outs stand apart in the source and are kept apart here. Non-standard residues stand in square brackets, D forms with d. Residues, ends and D or L forms follow the SMILES beside them. *: point of attachment. 5FAM = O=C1OC2(c3ccc(O)cc3Oc3cc(O)ccc32)c2ccc(C(=O)*)cc21; Lys(Me3) = C[N+](C)(C)CCCC[C@H](N)C(=O)O

Legend:
[1] = target: T1, KDM4A DTD (human KDM4A double tudor domain, 895–1011aa) (Homo sapiens, UniProt O75164); test: fluorescence polarization (FP) binding, KDM4A-DTD wild-type
T1 construct: DNA encoding DTDs (KDM4A 895–1011aa, KDM4B 917–1031aa and KDM4C 877–991aa); (His)6-HaloTag (pFN29) or (His)6 (pET28b); made in house; host or cells: Escherichia coli BL21 (DE3)
T1 sequence (O75164 895-1011): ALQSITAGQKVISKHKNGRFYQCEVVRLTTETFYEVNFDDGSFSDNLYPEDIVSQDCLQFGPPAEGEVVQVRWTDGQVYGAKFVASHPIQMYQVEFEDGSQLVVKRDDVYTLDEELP
Excerpt: (§1) KDM4 protein sequences used in this study correspond to Uniprot ID: O75164 (human KDM4A, isoform 1), O94953 (human KDM4B, isoform1) and Q9H3R0 (human KDM4C, isoform1). Plasmid encoding KDM4A DTD was kindly provided by R-M Xu (Chinese Academy of Sciences). Complementary DNA encoding human KDM4B-DTD was synthesized (Integrated DNA Technologies). Plasmid containing cDNA of full-length KDM4C (clone ID: HsCD00341594) was obtained from Harvard Plasmid Repository. DNA encoding DTDs (KDM4A 895–1011aa, KDM4B 917–1031aa and KDM4C 877–991aa) were cloned into pFN29 (Promega) with N-terminal (His)6-HaloTag or pET28b with N-terminal (His)6 Tag using In-Fusion HD cloning kit (Clontech). Plasmids encoding Xenopus laevis core histones were a generous gift of K. Luger (University of Colorado-Boulder). Site-directed mutagenesis was performed with Q5 Site-Directed Mutagenesis Kit (New England Biolabs).
(§2) Peptide sequences are given in Supplementary Table 1. […] A no-protein control with only peptide probe was included. Polarization at each concentration was measured as triplicates in 384-well polystyrene black microplates (Thermo Fisher Scientific 262260) by Biotek Synergy H4 multimode plate reader (light source: xenon flash, offset from top: 7 mm, sensitivity: 60%, excitation: 485/20 nm, emission: 528/20 nm, both parallel and perpendicular, normal read speed). Fraction bound (Fb) at each concentration was calculated based on the corresponding polarization values (P): Fbc=(Pc−Pmin)/(Pmax−Pmin), where Pmin is the polarization value of no-protein control and Pmax is the polarization value of the saturation value for that peptide. Dissociation constants (Kd) were derived by KaleidaGraph, Synergy Software (version 4.1.3) using the following equation: Fb=[protein]/([protein]+Kd).

[2] = target: T2, KDM4A-DTD triple mutant N931D/D939R/D945R (DRR) (Homo sapiens, UniProt O75164, D939R/D945R/N931D); test: FP binding, KDM4A-DTD DRR mutant; settings: matrix Fig. 3c, values given in mM, pH 7.4, read-out: binding affinity (Kd), DRR mutant
T2 construct: DNA encoding DTDs (KDM4A 895–1011aa, KDM4B 917–1031aa and KDM4C 877–991aa); (His)6-HaloTag (pFN29) or (His)6 (pET28b); made in house; host or cells: Escherichia coli BL21 (DE3)
T2 sequence (O75164 895-1011 N931D/D939R/D945R): T1 sequence (O75164 895-1011) with N37D, D45R, D51R
Excerpt: as §1, with “Plasmids encoding Xenopus laevis core histones were a generous gift of K. Luger (University of Colorado-Boulder). Site-directed mutagenesis was performed with Q5 Site-Directed Mutagenesis Kit (New England Biolabs).” left out
(§3) Peptide sequences are given in Supplementary Table 1. […] Polarization at each concentration was measured as triplicates in 384-well polystyrene black microplates (Thermo Fisher Scientific 262260) by Biotek Synergy H4 multimode plate reader (light source: xenon flash, offset from top: 7 mm, sensitivity: 60%, excitation: 485/20 nm, emission: 528/20 nm, both parallel and perpendicular, normal read speed). Fraction bound (Fb) at each concentration was calculated based on the corresponding polarization values (P): Fbc=(Pc−Pmin)/(Pmax−Pmin), where Pmin is the polarization value of no-protein control and Pmax is the polarization value of the saturation value for that peptide. […]

[3] = target: T3, KDM4B DTD (human KDM4B double tudor domain, 917–1031aa) (Homo sapiens, UniProt O94953); test: fluorescence polarization (FP) binding, KDM4B-DTD wild-type; settings: matrix Fig. 1d, pH 7.4, read-out: binding affinity (Kd), KDM4B DTD
T3 construct: DNA encoding DTDs (KDM4A 895–1011aa, KDM4B 917–1031aa and KDM4C 877–991aa); (His)6-HaloTag (pFN29) or (His)6 (pET28b); made in house; host or cells: Escherichia coli BL21 (DE3)
T3 sequence (O94953 917-1031): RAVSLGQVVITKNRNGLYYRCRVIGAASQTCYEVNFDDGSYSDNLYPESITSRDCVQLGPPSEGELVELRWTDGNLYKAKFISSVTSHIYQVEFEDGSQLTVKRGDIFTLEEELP
Excerpt: as §1, §2

[4] = target: T4, KDM4C DTD (human KDM4C double tudor domain, 877–991aa) (Homo sapiens, UniProt Q9H3R0); test: fluorescence polarization (FP) binding, KDM4C-DTD wild-type; settings: matrix Fig. 1d, pH 7.4, read-out: binding affinity (Kd), KDM4C DTD
T4 construct: DNA encoding DTDs (KDM4A 895–1011aa, KDM4B 917–1031aa and KDM4C 877–991aa); (His)6-HaloTag (pFN29) or (His)6 (pET28b); made in house; host or cells: Escherichia coli BL21 (DE3)
T4 sequence (Q9H3R0 877-991): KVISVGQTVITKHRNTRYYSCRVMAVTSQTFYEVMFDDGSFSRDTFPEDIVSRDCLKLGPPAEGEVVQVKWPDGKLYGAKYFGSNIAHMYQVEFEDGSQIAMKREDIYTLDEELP
Excerpt: as §1, with “Plasmids encoding Xenopus laevis core histones were a generous gift of K. Luger (University of Colorado-Boulder). Site-directed mutagenesis was performed with Q5 Site-Directed Mutagenesis Kit (New England Biolabs).” left out
as §3

KDM4B-DTD = test: biotinylated histone peptide pull-down, KDM4B-DTD; format: binding, human; settings: compared with KDM4A and KDM4C DTDs
H3K23me3 antibody = H3K23me3 antibody profiling on histone peptide microarray; settings: scale from zero (no binding) to one (highest binding), Supplementary Fig. 5b-c
Experimental: Peptide arrays were handled with care and protected from light. All solutions were filtered before putting on the array. Assays were performed with a modified two-chamber simplex gasket (Intuitive Bioscience). After tightening the gasket onto the slide surface, the peptide array was blocked with blocking solution (1 × PBS, 0.05% Tween-20 pH 7.4, 1% BSA) at 4 °C overnight, to reduce nonspecific binding. (1) Reader binding: 10–50 nM purified recombinant HT-KDM4 DTDs were first reacted with excessive HaloTag ligand-biotin (Promega) in blocking solution on ice for 15 min and incubated on peptide array under mild rocking at 4 °C, 1 h. The slide was washed with PBS with 0.05% Tween (PBST) three times and incubated with 1:2,000 streptavidin-conjugated Alexa-Fluor647 (Invitrogen) in blocking solution at room temperature for 1 h. (2) Antibody binding: after blocking, 1:2,500–1:100 dilution H3K23me3 antibody in blocking solution were incubated with peptide microarray under mild rocking at 4 °C, 1 h. The slide was washed with PBST three times and incubated with 1:1,000 anti-rabbit IgG Alexa 647 (Cell Signaling) in blocking solution at room temperature for 1 h. […] Signal intensities were quantified by GenePix Pro 6.1 software (Molecular Devices). […] For each peptide species, an average was calculated from three replicate spots. […]

[5] = test system: KDM4B full-length protein; test: MS-based demethylation assay, full-length KDM4B; format: biochemical, human; settings: 0.2 μM enzyme, 5–10 μM peptide, pH 7.5, 25 °C, MS read-out; single peptide substrates; Fig. 6a,b
Experimental: In a typical demethylase reaction, the assay mixture containing 50 mM Tris pH 7.5, 50 mM NaCl, 50 μM (NH4)2Fe(SO4)2, 0.5 mM ascorbic acid, 1 mM α-ketoglutarate and 0.2 μM full-length KDM4A–C (Active Motif) was mixed with 5–10 μM of trimethylated histone peptides (detailed sequence information in Supplementary Table 1). Each peptide concentration was quantified by measuring Abs280nm for peptides containing either tryptophan or tyrosine residue. After incubation of assay mixture at 25 °C for 10, 30 and 60 min time point, 10 μl of aliquot was transferred to a clean tube containing 5 μl of 5% formic acid to quench the reaction. Each quenched sample was treated with standard StageTip protocol using C18 extraction disk (Model 2215, Empore, 3 M) to remove excess salts and detergents in the reaction mixture. Each eluate from StageTip containing peptides was dried at a reduced pressure (vacuum centrifuge) and was re-suspended with 10 μl of 5% acetonitrile solution (0.1% formic acid). The 1 μl of the sample was injected at 0.7 μl min^−1 flow rate onto a Dionex Ultimate 3000 Nano LC system equipped with Atlantis dC18 NanoEase reverse-phase column (3 μm, 100 μm × 150 mm, Waters) and coupled to a hybrid quadrupole-orbitrap MS (Q-Exactive, Thermo Scientific). The peptide was eluted at 4–15 min retention time with a linear gradient of 2–35% acetonitrile (0.1% formic acid). All the solvents used for liquid chromatography MS were HPLC grade (Fisher). For each analysis, MS1 scan range of 300–1,100 m/z was used and data-dependent MS/MS was obtained to identify the site of demethylation. Each peptide peak and its area integration was performed on the XCalibur Qual Browser.

[6] = matrix Fig. 1d and Fig. 3c, pH 7.4, read-out: binding affinity (Kd), KDM4A DTD wild-type
[7] = Fig. 2e,g,i,j and Fig. 4g,i, pH 7.4, ± s.d. from three experimental replicates, read-out: binding affinity, KDM4A-DTD wild-type (WT)

## CC(C)C[C@H](NC(=O)[C@H](CCC(N)=O)NC(=O)[C@H](CCCCN)NC(=O)[C@H](CCCNC(=N)N)NC(=O)[C@@H]1CCCN1C(=O)[C@H](C)NC(=O)[C@H](CCCC[N+](C)(C)C)NC(=O)CNC(=O)CNC(=O)[C@@H](NC(=O)[C@H](CO)NC(=O)[C@H](CCCCN)NC(=O)[C@H](CCCNC(=N)N)NC(=O)[C@H](C)NC(=O)c1ccc2c(c1)C(=O)OC21c2ccc(O)cc2Oc2cc(O)ccc21)[C@@H](C)O)C(=O)N[C@@H](C)C(=O)N[C@H](C(=O)N[C@@H](CCCCN)C(=O)O)[C@@H](C)O [H3K14me3] (5FAM-ARKSTGG[Lys(Me3)]APRKQLATK-OH)
[1]; [6]
  Kd: 109 µM

## CNCCCC[C@H](NC(=O)[C@@H](NC(=O)[C@H](C)NC(=O)[C@H](CC(C)C)NC(=O)[C@H](CCC(N)=O)NC(=O)[C@H](CCCCN)NC(=O)[C@H](CCCNC(=N)N)NC(=O)c1ccc2c(c1)C(=O)OC21c2ccc(O)cc2Oc2cc(O)ccc21)[C@@H](C)O)C(=O)N[C@@H](C)C(=O)N[C@@H](C)C(=O)N[C@@H](CCCNC(=N)N)C(=O)N[C@@H](CCCCN)C(=O)N[C@@H](CO)C(=O)N[C@@H](C)C(=O)N1CCC[C@H]1C(=O)N[C@@H](C)C(=O)N[C@H](C(=O)O)[C@@H](C)O [H3K23me1]
[1]; [7]
  Kd: 98.6 ± 5.4 µM

## CC(C)C[C@H](NC(=O)[C@H](CCC(N)=O)NC(=O)[C@H](CCCCN)NC(=O)[C@H](CCCNC(=N)N)NC(=O)c1ccc2c(c1)C(=O)OC21c2ccc(O)cc2Oc2cc(O)ccc21)C(=O)N[C@@H](C)C(=O)N[C@H](C(=O)N[C@@H](CCCCN(C)C)C(=O)N[C@@H](C)C(=O)N[C@@H](C)C(=O)N[C@@H](CCCNC(=N)N)C(=O)N[C@@H](CCCCN)C(=O)N[C@@H](CO)C(=O)N[C@@H](C)C(=O)N1CCC[C@H]1C(=O)N[C@@H](C)C(=O)N[C@H](C(=O)O)[C@@H](C)O)[C@@H](C)O [H3K23me2]
[1]; pH 7.4, read-out: Kd, KDM4A-DTD wild-type
  Kd: 9.06 µM

## CC(C)C[C@H](NC(=O)[C@H](CCC(N)=O)NC(=O)[C@H](CCCCN)NC(=O)[C@H](CCCNC(=N)N)NC(=O)c1ccc2c(c1)C(=O)OC21c2ccc(O)cc2Oc2cc(O)ccc21)C(=O)N[C@@H](C)C(=O)N[C@H](C(=O)N[C@@H](CCCC[N+](C)(C)C)C(=O)N[C@@H](C)C(=O)N[C@@H](C)C(=O)N[C@@H](C)C(=O)N[C@@H](CCCCN)C(=O)N[C@@H](CO)C(=O)N[C@@H](C)C(=O)N1CCC[C@H]1C(=O)N[C@@H](C)C(=O)N[C@H](C(=O)O)[C@@H](C)O)[C@@H](C)O [H3K23me3R26A] (5FAM-RKQLAT[Lys(Me3)]AAAKSAPAT-OH)
[1]; [7]
  Kd: 32.3 ± 1.8 µM

## CC(C)C[C@H](NC(=O)[C@H](CCC(N)=O)NC(=O)[C@H](CCCCN)NC(=O)[C@H](CCCNC(=N)N)NC(=O)c1ccc2c(c1)C(=O)OC21c2ccc(O)cc2Oc2cc(O)ccc21)C(=O)N[C@@H](C)C(=O)N[C@H](C(=O)N[C@@H](CCCCN)C(=O)N[C@@H](C)C(=O)N[C@@H](C)C(=O)N[C@@H](CCCNC(=N)N)C(=O)N[C@@H](CCCC[N+](C)(C)C)C(=O)N[C@@H](CO)C(=O)N[C@@H](C)C(=O)N1CCC[C@H]1C(=O)N[C@@H](C)C(=O)N[C@H](C(=O)O)[C@@H](C)O)[C@@H](C)O [H3K27me3]
[2]
  Kd: 0.57 mM
[3]
  Kd: 140 µM
[1]; [6]
  Kd: 122 µM
[4]
  Kd: 103 µM

## CC(C)C[C@H](NC(=O)[C@H](CCC(N)=O)NC(=O)[C@H](CCCCN)NC(=O)[C@H](CCCNC(=N)N)NC(=O)c1ccc2c(c1)C(=O)OC21c2ccc(O)cc2Oc2cc(O)ccc21)C(=O)N[C@@H](C)C(=O)N[C@H](C(=O)N[C@@H](CCCC[N+](C)(C)C)C(=O)N[C@@H](C)C(=O)N[C@@H](C)C(=O)N[C@@H](CCCNC(=N)N)C(=O)N[C@@H](CCCCN)C(=O)N[C@@H](CO)C(=O)N[C@@H](C)C(=O)N1CCC[C@H]1C(=O)N[C@@H](C)C(=O)N[C@H](C(=O)O)[C@@H](C)O)[C@@H](C)OP(=O)(O)O [H3T22phK23me3]
[1]; [7]
  Kd: 83.7 ± 4.1 µM

## ARTK(Me3)QTARKSTE(PEGbiotin)W [H3K4me3 (biotinylated), H3K4me3 peptide for pull-down, PEGbiotin, in-house]
KDM4B-DTD
  pull-down binding of KDM4B-DTD: Decreased

## H3K36me3: demethylation assay peptide, Tufts University Core Facility
H3K23me3 antibody
  relative signal intensity with H3K23me3 antibody: less than 0.1
[5]
  demethylation by full-length KDM4B: consistent H3K36me3 demethylation

## RKQLATK(Me3)AARK(Me3)SAPATGGW [H3K23me3K27me3, demethylation assay peptide, Peptide 2.0]
[5]
  demethylation by full-length KDM4B: lack of measurable demethylation

## RKQLATKAARK(Me3)SAPATGGW [H3K27me3 peptide, demethylation assay peptide, Peptide 2.0]
[5]
  demethylation by full-length KDM4B: did not detect significant demethylation
